Measurements reported in PMC3265476, “Functional Characterization of MODY2 Mutations Highlights the Importance of the Fine-Tuning of Glucokinase and Its Role in Glucose Sensing” (PLoS ONE, 2012).
Changes are numbered by the printed parent chain.

Tests used:
Experiment in all cases: Inhibition of glucokinase activity by palmitoyl-CoA, Dixon plots
Type in all cases: biochemical
[1] = target: T1, GST-GK(p.Gly223Ser) (Homo sapiens, UniProt P35557, G223S); settings: glucose 12.5, 25 and 50 mM; read-out: I50 for palmitoyl-CoA
T1 construct: made in house; host or cells: E. coli
T1 sequence (P35557 1-465 G223S): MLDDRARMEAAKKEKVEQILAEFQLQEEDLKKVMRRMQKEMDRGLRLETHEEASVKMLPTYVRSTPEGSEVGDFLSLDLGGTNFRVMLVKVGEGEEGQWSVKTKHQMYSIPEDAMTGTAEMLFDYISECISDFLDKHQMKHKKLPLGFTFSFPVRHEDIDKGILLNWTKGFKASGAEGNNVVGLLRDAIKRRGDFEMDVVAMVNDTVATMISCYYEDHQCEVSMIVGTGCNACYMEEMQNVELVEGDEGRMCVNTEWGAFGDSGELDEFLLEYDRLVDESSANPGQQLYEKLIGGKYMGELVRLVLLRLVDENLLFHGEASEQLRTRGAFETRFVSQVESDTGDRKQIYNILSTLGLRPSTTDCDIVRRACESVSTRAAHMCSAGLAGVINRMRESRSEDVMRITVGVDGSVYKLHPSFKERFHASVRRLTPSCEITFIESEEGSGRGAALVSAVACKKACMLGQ
Procedure: (§1) Glucokinase activity was measured spectrophotometrically on a spectrophotometer Uviconxl (Secoman), using an NADP^+-coupled assay with glucose-6-phosphate dehydrogenase, as described previously. The final reaction mixture contained 100 mM Tris pH 7.4, 150 mM KCl, 1 mM MgCl2, 1.4 mM ß-mercaptoethanol, 0.1% BSA, 5 mM ATP-MgCl2, 1 mM NADP^+, and 1 U/ml glucose-6-phosphate dehydrogenase. Determination of kinetic parameters and thermal stability tests were performed as in [20]. […] Inhibition by NAG and MH was determined under standard assay conditions with 50 nM glucokinase. The inhibition by palmitoylCoA was determined in reaction mixtures containing 25 mM Hepes pH 7.1; 25 mM KCl; 1 mM NADP, 1 mM ATP-MgCl2; 2.5 mM MgCl2; 5 mM ß-mercaptoethanol, 1 U/ml glucose-6-phosphate dehydrogenase and 61 nM glucokinase. Due to the low Kcat value of mutant GST-GK(pAla449Thr), the amount of protein used in inhibition assays was 180 nM to get sufficient activity to allow for accurate determination of the inhibitor effect. In these conditions, GK activity (U/mg of GST-GK(pAla449Thr)) in the absence of inhibitors was 1.3±0.08, 1.1±0.06 and 0.9±0.05 at 2, 1.5 and 1 mM of glucose, respectively for NAG and MH assays and 0.5±0.05, 0.33±0.03 and 0.27±0.03 at 2, 1.5 and 1 mM glucose, respectively for palmitoyl-CoA assay.

[2] = target: T2, GST-GK(p.Ala449Thr) (Homo sapiens, UniProt P35557, A449T)
T2 construct: made in house; host or cells: E. coli
T2 sequence (P35557 1-465 A449T): T1 sequence (P35557 1-465 G223S) with S223G, A449T
Procedure: as §1

[3] = target: T3, Wild-type GST-GK (Homo sapiens, UniProt P35557); settings: glucose 2, 5 and 8 mM; 61 nM glucokinase; read-out: I50 for palmitoyl-CoA
T3 construct: made in house; host or cells: E. coli
T3 sequence (P35557 1-465): T1 sequence (P35557 1-465 G223S) with S223G
Procedure: as §1

CCCCCCCCCCCCCCCC(=O)SCCNC(=O)CCNC(=O)[C@H](O)C(C)(C)COP(=O)(O)OP(=O)(O)OC[C@H]1O[C@@H](n2cnc3c(N)ncnc32)[C@H](O)[C@@H]1OP(=O)(O)O [palmitoyl-CoA]
IC50 [1]: 1420 ± 130 nM | decrease of I50 for palmitoyl-CoA vs wild type [2]: ~26% | IC50 ([2]; glucose 1, 1.5 and 2 mM, 180 nM protein, read-out: I50 for palmitoyl-CoA): 2240 ± 140 nM | IC50 [3]: 3060 ± 270 nM
